Measurements reported in US20240166658A1, “PORPHYRIN DERIVATIVES AND USES THEREOF” (University of Tasmania, priority 2021, published 2024).

Columns and labels:
[1] = UV-Vis host-guest titration, association constant; format: binding
Description: (§1) Path length of the quartz cell was 1 cm. For UV-vis titrations, a stock solution of host was prepared (2.2×10^−3 M) in dichloromethane (DCM) and serially diluted to the required concentrations. Working solutions of tetrabutylammonium (TBA) anion salts or guest molecules were prepared in the same manner Host−guest titrations used solutions of guest prepared in the working concentration of host solution, according to the procedure of Thordarson, 2011.
(§2) UV-vis spectroscopic host−guest titrations were performed in accordance with the methodologies of Thordarson, 2011. Solutions of host in dichloromethane were prepared. Solutions of guest were then prepared in the host solution. Aliquots of guest in host solution were added to host solution and sequentially analysed until a known molar equivalent of guest was added. The amount of guest added per aliquot was ascertained by a preliminary screening experiment; strong association constants required smaller molar equivalents so more information could be collected. […] The inverse is true for weaker binding interactions. Molar equivalents between 0.1-5 typically provided adequate information for modelling. The data was then used to simulate binding isotherms using www.supramolecular.org (Hibbert and Thordarson, 2016). The data was fitted to 1:1, 1:2 and 2:1 equilibria making no assumptions about the cooperativity of the binding interactions and modelled using different algorithms. These experiments mainly used the Nelder-Mead (Simplex) method.
UV-Vis spectroscopy binding studies were used to determine the association constant for the host (9)−PFOA complex.
(§3) A host solution of host (9) in dichloromethane was monitored using UV-Vis analysis as 0.5-10 equivalents of each PFAS was added. […] The data was processed using Bindfit isotherm simulators using both Nelder-Mead and L-BFGS-B methods (Thordarson, 2011).
(§4) To highlight any potential binding preferences across the PFCAs from the host molecules, triplicates of host−guest addition titrations were performed using host (9) and the TBA salts of the nine different deprotonated PFCAs.

[2] = PFCA guest response across the nine PFCAs (UV-Vis, RGB, one-way ANOVA variance); details: dichloromethane
Description: (§5) Experiments were performed at concentrations that could be monitored by the naked eye for practical sensing of PFAS in the field. Complexes of hosts (9), (11) and (12) were formed with the nine different perfluorocarboxylic acids (PFCAs) shown in Table 2 above and the colours of each host−PFCA complex were photographed in a lightbox and analysed using ImageJ software RGB analysis. Pixels of the solution were chosen at random to provide an RGB value. Multiple RGB values were recorded for each host−PFCA solution, and an average colour can be produced. From those values an RGB parameter was used to give a response value for modelling (Tahir et al., 2016).
(§6) After preliminary screenings, UV-Vis spectra were collected before and after the addition of 1 molar equivalent of each PFCA for each host, and the degree of complexation was noted by shifts in the Soret bands and formation of a peak at ca. 650 nm. To eliminate dilution effects, PFCA guest solutions were prepared in the equivalent concentration of host. If there was a notable host−guest interaction for a particular PFCA, the host−guest binding was investigated with more rigorous UV-Vis experiments, binding studies, and further colour analyses. Throughout these investigations, PFOA was considered the “average” PFCA both because of its position in the range of PFCA sizes and because its prevalence is often an indication of broader PFAS contamination. In any experiment where binding was further investigated for a particular PFCA, it was typically replicated with PFOA for comparison.
One-way factorial ANOVA was used to examine the dependence (or independence) of two or more factors affecting the dependent variable concurrently, in the present case the change in absorption, or the change in RGB response across the tested PFCAs, or across the different hosts. This analysis was used to determine the variance in the responses of each host across the different PFCAs. […]

[3] = PFCA guest response screening (RGB analysis, UV-Vis)
Description: A Puluz® 20 cm portable light tent with moderate and dispersed white LED lighting was used to photograph samples using an iPhone 6S plus camera on a fixed tripod. The automatic flash settings were disabled so there was no reflective interference on the sample vials. Samples that were being directly compared were photographed together to ensure lighting conditions and settings were consistent. The photographs were analysed using ImageJ software according to the procedure of Gallagher, 2014b. Multiple RGB values were chosen from areas of each sample at random to provide an “average” RGB value (Menesatti et al., 2012; Gallagher, 2014a; Phuangsaijai et al., 2021). Those RGB values were used to produce an artificial colour tile for visual comparison, or parameterized for modelling.
To quantify a colour difference, RGB values were transformed within the CIELab colour space. The difference, expressed as ΔE, was determined by measuring the relative distance between two colours. The numeric ΔE value can be used to predict how the two colours are perceived by a standard observer; a ΔE>2 is considered the minimum value to achieve a “just noticeable difference” (JND) (Table 1), which is the smallest difference required for an untrained observer to be able to determine two colours as being different (Castillo et al., 2021).
as §5, §6

[4] = UV-Vis host-guest titration, association constant; format: binding; remark: listed apart in the source
Description: as §1, §2, §3, §4
Host (12) was also modelled for secondary binding interactions in the presence of additional guest (Table 9).

[5] = host (9) in dichloromethane, triplicate, TBA salt and acid, Bindfit
[6] = short, medium and long chain sensor molecules with PFOA
[7] = host + one equivalent PFBA in dichloromethane
[8] = host + one equivalent PFDA in dichloromethane
[9] = host + one equivalent PFDoDA in dichloromethane
[10] = host + one equivalent PFHpA in dichloromethane
[11] = host + one equivalent PFHxA in dichloromethane
[12] = host + one equivalent PFNA in dichloromethane
[13] = host + one equivalent PFOA in dichloromethane
[14] = host + one equivalent PFPeA in dichloromethane
[15] = host + one equivalent PFUnDA in dichloromethane

O=C(Nc1ccccc1-c1c2nc(c(-c3ccccc3NC(=O)C(F)(F)C(F)(F)C(F)(F)C(F)(F)C(F)(F)C(F)(F)C(F)(F)F)c3ccc([nH]3)c(-c3ccccc3NC(=O)C(F)(F)C(F)(F)C(F)(F)C(F)(F)C(F)(F)C(F)(F)C(F)(F)F)c3nc(c(-c4ccccc4NC(=O)C(F)(F)C(F)(F)C(F)(F)C(F)(F)C(F)(F)C(F)(F)C(F)(F)F)c4ccc1[nH]4)C=C3)C=C2)C(F)(F)C(F)(F)C(F)(F)C(F)(F)C(F)(F)C(F)(F)C(F)(F)F [host (9), α,α,α,α-5,10,15,20-tetrakis(2-(pentadecafluorooctanoylamino)phenyl)porphyrin]
association constant (Ka) ([1]; host 1.01×10^−6 M in dichloromethane, TBAPFO aliquots, 1:1, Nelder-Mead and L-BFGS-B): ~2.8e+06 M⁻¹
K value (averaged association constant Ka) [1, 5]: 109574
K [1, 6]: 1.77e+06 M⁻¹
colorimetric response to all nine PFCAs [2]: colorimetric response was visible
Absorbance @ 650 nm [3, 7]: 0.04939
Absorbance @ 650 nm [3, 8]: 0.03023
Absorbance @ 650 nm [3, 9]: 0.01719
Absorbance @ 650 nm [3, 10]: 0.04879
Absorbance @ 650 nm [3, 11]: 0.04964
Absorbance @ 650 nm [3, 12]: 0.02986
Absorbance @ 650 nm [3, 13]: 0.02885
Absorbance @ 650 nm [3, 14]: 0.04302
Absorbance @ 650 nm [3, 15]: 0.02958
ΔEHost-PFCA ([3]; host vs host + PFBA): 46.1
ΔEHost-PFCA ([3]; host vs host + PFDA): 39.6
ΔEHost-PFCA ([3]; host vs host + PFDoDA): 22.4
ΔEHost-PFCA ([3]; host vs host + PFHpA): 47.2
ΔEHost-PFCA ([3]; host vs host + PFHxA): 47.3
ΔEHost-PFCA ([3]; host vs host + PFNA): 38.5
ΔEHost-PFCA ([3]; host vs host + PFOA): 39.3
ΔEHost-PFCA ([3]; host vs host + PFPeA): 46.2
ΔEHost-PFCA ([3]; host vs host + PFUnDA): 38.5
K value (averaged association constant Ka) [4, 5]: 1010

O=C(Nc1ccccc1-c1c2nc(c(-c3ccccc3NC(=O)C(F)(F)C(F)(F)C(F)(F)C(F)(F)C(F)(F)C(F)(F)C(F)(F)C(F)(F)C(F)(F)C(F)(F)C(F)(F)F)c3ccc([nH]3)c(-c3ccccc3NC(=O)C(F)(F)C(F)(F)C(F)(F)C(F)(F)C(F)(F)C(F)(F)C(F)(F)C(F)(F)C(F)(F)C(F)(F)C(F)(F)F)c3nc(c(-c4ccccc4NC(=O)C(F)(F)C(F)(F)C(F)(F)C(F)(F)C(F)(F)C(F)(F)C(F)(F)C(F)(F)C(F)(F)C(F)(F)C(F)(F)F)c4ccc1[nH]4)C=C3)C=C2)C(F)(F)C(F)(F)C(F)(F)C(F)(F)C(F)(F)C(F)(F)C(F)(F)C(F)(F)C(F)(F)C(F)(F)C(F)(F)F [host (12), α,α,α,α-5,10,15,20-tetrakis(2-(tricosafluorododecanoylamino)phenyl) porphyrin]
K ([1]; 1 Host:1 Guest binding mode): 1.58 × 10^5
K11 ([1]; 1 Host:2 Guest binding mode): 1.49 × 10^7
K12 ([1]; 1 Host:2 Guest binding mode): 1.17 × 10^2
K [1, 6]: 1.67e+06 M⁻¹
colorimetric response to all nine PFCAs [2]: provided a colorimetric response
Absorbance @ 650 nm [3, 7]: 0.0906
Absorbance @ 650 nm [3, 8]: 0.0918
Absorbance @ 650 nm [3, 9]: 0.0769
Absorbance @ 650 nm [3, 10]: 0.0737
Absorbance @ 650 nm [3, 11]: 0.0728
Absorbance @ 650 nm [3, 12]: 0.0953
Absorbance @ 650 nm [3, 13]: 0.0913
Absorbance @ 650 nm [3, 14]: 0.0692
Absorbance @ 650 nm [3, 15]: 0.0808
ΔEHost-PFCA ([3]; host vs host + PFBA): 21.1
ΔEHost-PFCA ([3]; host vs host + PFDA): 22.3
ΔEHost-PFCA ([3]; host vs host + PFDoDA): 17.9
ΔEHost-PFCA ([3]; host vs host + PFHpA): 16.3
ΔEHost-PFCA ([3]; host vs host + PFHxA): 17.5
ΔEHost-PFCA ([3]; host vs host + PFNA): 22.3
ΔEHost-PFCA ([3]; host vs host + PFOA): 21.8
ΔEHost-PFCA ([3]; host vs host + PFPeA): 9.8
ΔEHost-PFCA ([3]; host vs host + PFUnDA): 18.8
K ([4]; 1 Host:1 Guest binding mode): 3.76 × 10^4
K11 ([4]; 1 Host:2 Guest binding mode): 1.76 × 10^6
K12 ([4]; 1 Host:2 Guest binding mode): 7.92 × 10^4
K11 ([4]; 2 Host:1 Guest binding mode): 2.37 × 10^5
K21 ([4]; 2 Host:1 Guest binding mode): 6.69 × 10^4
